According to ChEMBL document CHEMBL1126454, “Syntheses of new TXA2/PGH2-receptor antagonists and their biological properties” (Bioorg Med Chem Lett, 1992):

Legend:
[1] = target: T1, Thromboxane A2 receptor (Homo sapiens) (UniProt P21731); assay: Competition factor for Thromboxane A2 (TXA2) / Prostaglandin H2 (PGH2)-receptor was determined by CF=(ID50-test)/(ID50-standard)
T1 sequence (whole entry): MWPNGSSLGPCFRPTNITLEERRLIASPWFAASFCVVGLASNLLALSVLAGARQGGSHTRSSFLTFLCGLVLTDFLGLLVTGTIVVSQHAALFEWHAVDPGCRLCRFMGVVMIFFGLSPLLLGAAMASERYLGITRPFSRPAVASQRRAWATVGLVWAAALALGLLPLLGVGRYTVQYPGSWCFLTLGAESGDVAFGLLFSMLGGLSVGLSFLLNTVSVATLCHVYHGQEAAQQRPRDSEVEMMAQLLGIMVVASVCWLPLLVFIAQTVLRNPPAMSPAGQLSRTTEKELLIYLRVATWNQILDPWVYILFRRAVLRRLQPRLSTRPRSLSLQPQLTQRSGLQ

[2] = target: T1, Thromboxane A2 receptor (Homo sapiens); assay: Competition factor for Thromboxane A2 (TXA2) / Prostaglandin H2 (PGH2)-receptor was determined by CF=(ID50-test)/(ID50-standard); not parallel
[3] = target: T1, Thromboxane A2 receptor (Homo sapiens); assay: Competition factor for Thromboxane A2 (TXA2) / Prostaglandin H2 (PGH2)-receptor was determined by CF=(ID50-test)/(ID50-standard); partial agonist; type: functional
[4] = target: T1, Thromboxane A2 receptor (Homo sapiens); assay: Competition factor for Thromboxane A2 (TXA2) / Prostaglandin H2 (PGH2)-receptor was determined by CF=(ID50-test)/(ID50-standard); agonist; type: functional
[5] = target: T1, Thromboxane A2 receptor (Homo sapiens); assay: Competition factor for Thromboxane A2 (TXA2) / Prostaglandin H2 (PGH2)-receptor was determined by CF=(ID50-test)/(ID50-standard); antagonist; type: functional

Structure (SMILES)	CF [1]	other results
O=C(O)CCCCC[C@H]1[C@H](CNS(=O)(=O)c2ccc(Cl)cc2)C2CC1(c1ccc(-c3ccccc3)cc1)CO2 (some centres not stated)		CF [2]: 0.3
Cc1ccc(S(=O)(=O)NC[C@@H]2C3CC(c4ccc(-c5ccccc5)cc4)(CO3)[C@H]2CCCCCC(=O)O)cc1 (some centres not stated)	0.1	
CCCCC[C@H](O)/C=C/[C@H]1C2CC(CCc3ccccc3)(CO2)[C@@H]1C/C=C/CCCC(=O)O (some centres not stated)	420	
O=C(O)CCC/C=C\C[C@H]1[C@H](CNS(=O)(=O)c2ccc(Cl)cc2)C2CC1(c1ccc(-c3ccccc3)cc1)CO2 (some centres not stated)		CF [2]: 0.4
Cc1ccc(S(=O)(=O)N[C@@H]2C3CC(c4cccc(F)c4)(CO3)[C@H]2C/C=C/CCCC(=O)O)cc1 (some centres not stated)	120	
O=C(O)CCC/C=C/C[C@H]1[C@H](/C=N/Oc2ccc(F)cc2)C2CC1(c1ccc(F)cc1)CO2 (some centres not stated)	16	
O=C(O)CCCCC[C@H]1[C@H](CNS(=O)(=O)c2ccc(Cl)c(Cl)c2)C2CC1(c1ccc(-c3ccccc3)cc1)CO2 (some centres not stated)	5	CF [2]: 6
CCCCC[C@H](O)/C=C/[C@H]1C2CC(c3ccc(F)cc3)(CO2)[C@@H]1C/C=C/CCCC(=O)O (some centres not stated)	650	
O=C(O)CCC/C=C/C[C@H]1[C@H](/C=C/[C@@H](O)COc2ccc(F)cc2)C2CC1(c1ccc(F)cc1)CO2 (some centres not stated)		CF [3]: 2
O=C(O)CCC/C=C/C[C@H]1[C@H](NS(=O)(=O)c2ccc(F)cc2)C2CC1(c1cccc(F)c1)CO2 (some centres not stated)	250	
CCC#CC[C@H](C)[C@H](O)/C=C/[C@@H]1C2CC(c3ccc(F)cc3)(CO2)[C@H]1C/C=C/CCCC(=O)O (some centres not stated)	26	
O=C(O)CCC/C=C/C[C@H]1[C@H](NS(=O)(=O)c2ccc(F)cc2)C2CC1(c1ccc(O)cc1)CO2 (some centres not stated)	30	
O=C(O)CCC/C=C/C[C@@H]1[C@@H](COCc2ccccc2)C2CC1(CCc1ccccc1)CO2 (some centres not stated)		CF [4]: 750
CCCCC[C@H](O)/C=C/[C@H]1C2CC(CO2)[C@@H]1CC=CCCCC(=O)O (some centres not stated)		CF [4]: 36
O=C(O)CCC/C=C\C[C@H]1[C@H](CNS(=O)(=O)c2ccc(Cl)c(Cl)c2)C2CC1(c1ccc(-c3ccccc3)cc1)CO2 (some centres not stated)		CF [2]: 4.2
Cc1ccc(S(=O)(=O)NC[C@@H]2C3CC(c4ccc(-c5ccccc5)cc4)(CO3)[C@H]2CC=CCCCC(=O)O)cc1 (some centres not stated)		CF [2]: 4
O=C(O)CCC/C=C/C[C@H]1[C@H](NS(=O)(=O)c2ccc(F)cc2)C2CC1(c1ccc(F)cc1)CO2 (some centres not stated)	120	
CCC#CC[C@H](C)[C@H](O)C#C[C@@H]1C2CC(c3ccc(F)cc3)(CO2)[C@H]1C/C=C/CCCC(=O)O (some centres not stated)	4	
CCC#CC[C@H](C)[C@H](O)/C=C/[C@@H]1C2CC(c3ccc(-c4ccccc4)cc3)(CO2)[C@H]1C/C=C/CCCC(=O)O (some centres not stated)		CF [3]: 20
O=C(O)CCCCCC[C@H]1[C@H](CNS(=O)(=O)c2ccc(Cl)c(Cl)c2)C2CC1(c1ccc(-c3ccccc3)cc1)CO2 (some centres not stated)	12	
N#Cc1ccc(COC[C@@H]2C3CC(c4ccc(F)cc4)(CO3)[C@H]2C/C=C/CCCC(=O)O)cc1 (some centres not stated)		CF [3]: 6
Cc1ccc(S(=O)(=O)N[C@@H]2C3CC(c4ccc(F)cc4)(CO3)[C@H]2C/C=C/CCCC(=O)O)cc1 (some centres not stated)	170	
O=C(O)CC/C=C\C[C@H]1[C@H](CNS(=O)(=O)c2ccc(Cl)cc2)C2CC1(c1ccc(-c3ccccc3)cc1)CO2 (some centres not stated)		CF [2]: 0.1
CCCCC[C@H](O)/C=C/[C@@H]1C2CC(c3ccc(F)cc3)(CO2)[C@H]1C/C=C/CCCC(=O)O (some centres not stated)	25	
O=C(O)CCC/C=C/C[C@H]1[C@H](/C=N/Oc2ccc(F)cc2)C2CC1(c1cccc(F)c1)CO2 (some centres not stated)	10	
O=C(O)CCC/C=C/C[C@@H]1[C@@H](/C=C/[C@@H](O)COc2ccc(F)cc2)C2CC1(c1ccc(F)cc1)CO2 (some centres not stated)	375	
Cc1ccc(S(=O)(=O)N[C@@H]2C3CC(c4ccc(O)cc4)(CO3)[C@H]2C/C=C/CCCC(=O)O)cc1 (some centres not stated)	520	
CCCCC[C@H](O)/C=C/[C@H]1C2CC(C)(CO2)[C@@H]1C/C=C/CCCC(=O)O (some centres not stated)		CF [4]: 320
CCC#CC[C@H](C)[C@H](O)C#C[C@@H]1C2CC(c3ccc(-c4ccccc4)cc3)(CO2)[C@H]1C/C=C/CCCC(=O)O (some centres not stated)		CF [3]: 12

Continued, in another order:

CF [1]	Structure (SMILES)	other results
0.05	O=C(O)CC/C=C\C[C@H]1[C@H](CNS(=O)(=O)c2ccc(F)cc2)C2CC1(c1ccc(-c3ccccc3)cc1)CO2 (some centres not stated)	
900	N#Cc1ccc(COC[C@H]2C3CC(c4ccc(F)cc4)(CO3)[C@@H]2C/C=C/CCCC(=O)O)cc1 (some centres not stated)	
2	O=C(O)CCC/C=C/C[C@H]1[C@H](NS(=O)(=O)c2ccc(F)cc2)C2CC1(c1ccc(-c3ccccc3)cc1)CO2 (some centres not stated)	
125	O=C(O)CCC/C=C/C[C@@H]1[C@@H](COCc2ccccc2)C2CC1(c1ccc(F)cc1)CO2 (some centres not stated)	
800	O=C(O)CCC/C=C/C[C@@H]1[C@@H](COCc2ccccc2)C2CC1(Cc1ccc(-c3ccccc3)cc1)CO2 (some centres not stated)	
250	CCCCC[C@H](O)/C=C/[C@H]1C2CC(Cc3ccccc3)(CO2)[C@@H]1C/C=C/CCCC(=O)O (some centres not stated)	
2	Cc1ccc(S(=O)(=O)N[C@@H]2C3CC(c4ccc(-c5ccccc5)cc4)(CO3)[C@H]2C/C=C/CCCC(=O)O)cc1 (some centres not stated)	
12	O=C(O)CCC/C=C/C[C@H]1[C@H](COCc2ccccc2)C2CC1(C#Cc1ccccc1)CO2 (some centres not stated)	
300	O=C(O)CCC/C=C/C[C@@H]1[C@@H](COCc2ccccc2)C2CC1(Cc1ccccc1)CO2 (some centres not stated)	
16	O=C(O)CCC/C=C/C[C@H]1[C@H](/C=N/Oc2ccc(F)cc2)C2CC1(c1ccc(-c3ccccc3)cc1)CO2 (some centres not stated)	
60	O=C(O)CCC/C=C/C[C@H]1[C@H](COCc2ccccc2)C2CC1(c1ccccc1)CO2 (some centres not stated)	
> 1000	O=C(O)CCC/C=C/C[C@H]1C2COC(C2)[C@@H]1COCc1ccccc1 (some centres not stated)	
60	O=C(O)CCC/C=C/C[C@H]1[C@H](COCc2ccccc2)C2CC1(c1ccc(F)cc1)CO2 (some centres not stated)	
0.1	O=C(O)CCCCC[C@H]1[C@H](CNS(=O)(=O)c2ccc(F)cc2)C2CC1(c1ccc(-c3ccccc3)cc1)CO2 (some centres not stated)	
1.4	O=C(O)CCCCCC[C@H]1[C@H](CNS(=O)(=O)c2ccc(Cl)cc2)C2CC1(c1ccc(-c3ccccc3)cc1)CO2 (some centres not stated)	
30	O=C(O)CCC/C=C/C[C@@H]1[C@@H](COCc2ccccc2)C2CC1(C#Cc1ccccc1)CO2 (stereo in doubt)	
90	CCCC#CC12COC(C1)[C@H](COCc1ccccc1)[C@H]2C/C=C/CCCC(=O)O (some centres not stated)	
30	O=C(O)CCC/C=C/C[C@@H]1[C@@H](COCc2ccccc2)C2CC1(C#Cc1ccccc1)CO2 (stereo in doubt; 8a)	
0.05	Cc1ccc(S(=O)(=O)NC[C@@H]2C3CC(c4ccc(-c5ccccc5)cc4)(CO3)[C@H]2C/C=C\CCC(=O)O)cc1 (some centres not stated)	
> 1000	CC12COC(C1)[C@H](COCc1ccccc1)[C@H]2C/C=C/CCCC(=O)O (some centres not stated)	
300	O=C(O)CCC/C=C/C[C@@H]1[C@@H](COCc2ccccc2)C2CC1(c1ccccc1)CO2 (some centres not stated)	CF [5]: 300
